The source of these data is US7598028B2, “Compositions and methods for detecting and treating prostate disorders” (The Regents of the University of Michigan, priority 2006, dated 2009).

One assay concerns STAT3. As to the kind of experiment: Western blot, STAT3 phosphorylation in LNCaP cells. As to conditions: sub-nanomolar or nanomolar levels of CXCL5. It counts as cell-based, human. On the procedure: Western Blot and Protein Analysis. Cells were lysed, proteins resolved by electrophoresis, and electroblotting was carried out as described previously except that 20 ug protein was electrophoresed per gel lane for N15C6 cells and 100 ug protein for LNCaP cells (see, e.g., Begley L, et al., Aging Cell. 2005 December; 4(6):291-8; Begley L A, et al., J Biol. Chem. 2007 Sep. 14; 282(37):26767-74; each herein incorporated by reference in their entireties). Proteins were detected using antibodies against phospho-ERK½ (Cell Signaling #9101), total ERK½ (Cell Signaling, #9102), phospho-p65, (Rockland #100-401-264), total p65 (Rockland #100-4165), STAT3 (9139), phospho-STAT3 (9138), beta-actin (Santa Cruz #sc-1615), or tubulin (Upstate, #DM1A) in conjunction with an ECL detection system. Secondary antibodies included goat anti-rabbit (Cell Signaling, #7074) and goat anti-mouse (Santa Cruz, #SC-2005), and both were used at a 1:5000 concentration. Immunoblots shown are representative of triplicate experiments. Densitometric quantitation of immunoblot films was accomplished by scanning the original films and converting the .tiff files to grayscale. Images were inverted, and mean band intensities were measured using ImageJ (www, followed by, .nih.gov). The mean intensity of adjacent background was also measured for each band and subtracted from band intensity.
(In general: Immunoblotting shows a protein as a band on a membrane.)

Assay [1] deals with PC3 prostate epithelial cells. As to the kind of experiment: Proliferation assay, PC3. Format: cell-based, human. As to conditions: 0.001-1 nM CXCL5, p<0.05. On the procedure: Proliferation Assays. Cellular proliferation was assessed after plating cells at 50,000 cell/well in triplicate in six well plates and counting cells after 24 and 96 hours of incubation as described previously (see, e.g., Begley L, et al., Genes Chromosomes Cancer. 2006 February; 45(2): 136-46; herein incorporated by reference in its entirety). To assess the effects of exogenous CXCL5 on cellular proliferation, recombinant human CXCL5 (R&D Systems, 254-X) was added at the desired concentration in 2 ml SF media (or 2 ml SF media alone for control) to each well. The cells were re-fed at 24 hours growth and counted at 24 and 96 hours growth. Cell counts were normalized to 50,000 cells at 24 hours to account for any plating discrepancies. Averages and standard deviations of cell number were calculated for each time point under each media condition. For the antibody blockade experiments, 10,000 cells per well were plated in triplicate in 24 well dishes and preincubated with mouse anti-human CXCR2 (Biosource AHR1532X) or mouse antihuman CXCR4 (BD Pharmingen 555971) at 1 ug/ml for 1 hour prior to CXCL5 addition. Cells were maintained in media containing appropriate antibodies for the entirety of the experiment and were counted at 24 and 96 hours as above.

With “CXCL5: recombinant human CXCL5 (R&D Systems, 254-X), CXC-type chemokine”, the “activation of STAT3” value in the assay with STAT3 is recorded as “not observed”. Moreover, the “proliferation versus SF media alone” value in assay [1] is recorded as “significantly higher”.
